Measurements: US10226514B2, “Methods and compositions for reducing blood glucose levels” (The Children's Medical Center Corporation, priority 2011, dated 2019)
“Also recorded” adds a separate entry of the source.

Assays:
XBP1s [1] = test: XBP1s protein levels in Ad-XBP1s-infected MEFs (western blot); assay type: cell-based, mouse
Method: MEF cells were from American Type Tissue Collection (ATCC). These cells were grown in Dulbecco's Modified Eagel Medium (DMEM) supplemented with 10% fetal bovine serum (FBS), 10 U/ml penicillin and 1 μg/ml streptomycin at 37° C. and 5% CO2. Fao cells were maintained in RPMI 1640 medium (Invitrogen) supplemented with 10% fetal bovine serum (FBS), 10 U/ml penicillin and 1 μg/ml streptomycin.
Adenovirus expressing XBP1s T48A, XBP1s S61A, XBP1s T48A/S61A and MKK6Glu were produced with ViraPower Adenoviral Expression System (Invitrogen) according to manufacturer's instruction. Briefly, pAD-XBP1s T48A, pAD-XBP1s S61A, pAd-XBP1s T48A/S61A and pAd-MKK6Glu were linearized by restriction endonuclease digestion with PacI and transfected to 293A cells by Lipofectamine. The media was changed with fresh media every other day until the cytopathic effect was observed. When cytopathic effect reached to 80%, cells were collected by centrifugation. The pellet was resuspended in PBS and subjected to freezing and thawing cycles at −80° C. and 37° C. for 4 times. The supernatant containing the virus was prepared by centrifugation at 4,000 rpm for 20 min at room temperature. Ad-XBP s and Ad-Cre were generated as described previously (Ozcan, L., et al. (2009) Cell metabolism 9:35-51). For infection, cells were incubated with adenovirus in reduced volume of medium containing 1% FBS and antibiotics. Cells were gently rocked every 15 min for 1 h to increase efficiency of infection, and then fresh medium were added and cells were incubated for additional 15 h or 23 h.
Cells were lysed in lysis buffer (25 mM Tris-HCl, pH 7.4; 10 mM NaF; 10 mM Na4P207; 2 mM Na3VO4; 1 mM EGTA; 1 mM EDTA; 1% NP-40; 10 μg/ml Leupeptin; 10 μg/ml Aprotinin; 1 mM PMSF and 20 nM Okadaic acid). After 20 min-rotation at 4° C., cell lysates were centrifuged at 13,200 rpm for 20 min at 4° C. Supernatants were collected and protein concentration was quantified by using Protein Assay Kit (Bio-Rad). The concentrations of protein were normalized with lysis buffer to have equivalent amounts of protein and volume. Protein was denatured by boiling at 100° C. for 5 min in Laemmli buffer. The lysates were cooled to room temperature before loading for western blot analysis.
Western blot analysis was performed as previously described (Ozcan, L., et al. (2009) Cell metabolism 9:35-51). Samples from cell lysates or tissue lysates were resolved by SDS-PAGE and then transferred to polyvinylidene fluoride (PVDF) membrane. After 1 h blocking at room temperature using 10% blocking reagent (Roche), membrane was incubated overnight with primary antibody in Tris-buffered saline solution/Tween (TBST) containing 10% blocking reagent at 4° C. After the incubation, membrane was washed three times in TBST and incubated with secondary antibody for 1 h at room temperature. After three-time washing in TBST, membrane was developed using a chemiluminescence assay system (Roche) and exposed to Kodak films. Relative protein levels were quantified by Image J program.

XBP1s [2] = test: XBP1s protein degradation after cycloheximide; assay type: cell-based, mouse; details: anisomycin 25 ng/ml two hours, then cycloheximide 10 μg/ml, vs vehicle
Method: MEF cells were infected with Ad-XBP1s. After 24 h post-infection, cells were treated with anisomycin at 25 ng/ml or vehicle (DMSO) for 2 h. Translation […] inhibitor cycloheximide (10 μg/ml, Sigma) was added to the medium. Cells were flash frozen in liquid nitrogen at various time points. Protein levels were determined via immunoblotting.

XBP1s [3] = test: XBP1s phosphorylation at Thr48 and Ser61 in cells (MS/MS, phospho-specific antibodies); assay type: cell-based, mouse; details: anisomycin 25 ng/ml
Method: MEFs were infected with flag-tagged XBP1s expressing adenovirus and treated with anisomycin (25 ng/ml) for 2 h. Cells were washed with ice-cold PBS and lysed with RIPA buffer (50 mM Tris-HCl, pH 7.5; 2 mM EGTA; 0.3% CHAPS; 100 mM NaF; 10 mM Na4P2O7; 1 mM Na3VO4; 10 μg/ml Leupeptin; 10 μg/ml Aprotinin; 2 mM PMSF and 20 nM Okadaic acid). After overnight incubation with anti-flag antibody, Protein A sepharose beads were added for additional 2 h at 4° C. Immunoprecipates were washed three times with RIPA buffer containing 150 mM NaCl and boiled for 5 min in 2× Laemmli buffer for elution of immunoprecipitated XBP1s. Samples were resolved in SDS-PAGE and stained with Coomassie blue (Bio-Rad). Protein from Coomassie-stained gel bands was digested with trypsin and the resulting peptide mixtures were subjected to microcapillary liquid chomatography tandem mass spectrometry (LC-MS/MS). MS/MS spectra were assigned by searching them with the XBP1s protein sequence using the SEQUEST algorithm.
Similar results were obtained from XBP1s^Ser61 phosphorylation.

p38 MAPK = p38 MAPK phosphorylation in anisomycin-treated knock-out cells; assay type: cell-based
From the text: It is known that MAPK kinase kinase (MKK) 4 and 7 are upstream kinases responsible for JNK activation (Tournier, C., et al. (2001) Genes Dev 15:1419-1426; Brancho, D., et al. (2003) Genes Dev 17:1969-1978) and anisomycin or TNFα cannot activate JNK in MKK4 and 7 double knock out cells (MKK4,7^−/−) (Tournier, C., et al. (2001) Genes Dev 15:1419-1426; Schaeffer, H. J. & Weber, M. J. (1999) Mol Cell Biol 19:2435-2444). In order to determine whether XBP1s can be regulated by anisomycin treatment in MKK4,7^−/− cells, these cells, along with their controls, were treated with anisomycin after XBP is expression. […] Furthermore, the experiments were repeated in JNK1,2^−/− and MKK4,7^−/− cells with TNFα. […] Finally, an MKK7-JNK1 fusion protein, previously shown to be a specific activator of JNK (Lei, K., et al. (2002) Mol Cell Biol 22:4929-4942), was used to investigate whether activation of JNK alone can have effect on XBP1s.

COc1ccc(C[C@H]2NC[C@H](O)[C@H]2OC(C)=O)cc1 [anisomycin]
XBP1s protein levels (XBP1s [1]; Ad-XBP1s-infected MEFs, increasing doses, two hours): robust increase in XBP1s protein levels
XBP1s protein levels (XBP1s [1]; Ad-XBP1s-infected MK2−/− cells vs control cells): dramatically reduced
XBP1s levels (XBP1s [1]; Ad-XBP1s-infected MKK3,6−/− cells): no increase in XBP1s levels
XBP1s levels (XBP1s [1]; Ad-XBP1s-infected p38α−/− cells): lacked the ability to upregulate XBP1s levels
XBP1s protein levels (XBP1s [1]; JNK1,2−/− cells): significant increase in XBP is protein
XBP1s levels (XBP1s [1]; MKK4,7−/− cells): dramatically increased XBP1s levels
XBP1s proteins in Ad-LacZ-infected control cells (XBP1s [1]; up to 25 ng/ml anisomycin): No upregulation of XBP1s proteins
degradation rate of XBP1s protein (XBP1s [2]): No differences in the degradation rate of XBP1s protein
phosphorylation of XBP1s at Ser61 (XBP1s [3]): increases phosphorylation of XBP1s at Ser61; also recorded: strongly induced phosphorylation of XBP1s at Ser61
phosphorylation of XBP1s at Thr48 (XBP1s [3]): greatly increased phosphorylation of the Thr48 residue
p38 MAPK phosphorylation (p38 MAPK; JNK1,2−/− cells): marked increase in p38 MAPK phosphorylation
p38 MAPK activation (p38 MAPK; MKK4,7−/− cells): significantly increased
